{"source": "patent US12459954B2", "about": "“Crystalline form a of GLP-1 receptor agonist and preparation method therefor” (Hangzhou Zhongmei Huadong Pharmaceutical Co., Ltd., priority 2020, dated 2025)", "type_in_all_cases": "physicochemical", "key": {"[1]": {"assay": "Study of stability: chemical stability expressed in the HPLC purity", "procedure": "(§1) The crystal form A of OAD2 was subject to a stability study. The crystal form A was tested stability in H2O, SGF (simulated gastric fluid), FeSSIF (simulated intestinal fluid in the feeding state) and FaSSIF (simulated intestinal fluid in the fasting state). The chemical stability was expressed in the HPLC purity. The crystal form stability was expressed by detecting the change of crystal form by XPRD."}, "[2]": {"assay": "Hygroscopic weight increment on placement (water absorption)", "conditions": "for weight increase from absorption of water: after 5 days under certain (experimental) / similar conditions"}, "[3]": {"assay": "Study of stability: crystal form stability by detecting the change of crystal form by XRPD", "procedure": "X-ray powder dfraction (XRPD): Empyren; test conditions: power 40 kV×250 mA, CuKα radiation; scanning range 3˜40° (2θ); step width 0.02°; scanning speed 5/min; scanning method: continuous scanning.\nas §1"}, "[4]": {"assay": "Study of stability: chemical stability expressed in the HPLC purity", "conditions": "dihydrochloride"}, "[5]": {"conditions": "Placed at room temperature and room humidity, 28 d"}, "[6]": {"conditions": "Room temperature and room humidity ± 25° C./60% RH, 28 d + 7 d"}}, "note": "Where a name gives a salt, the structure may show the parent alone."}
{"smiles": "CC[C@@H](c1ccccc1)N1Cc2cc3c(cc2C[C@H]1C(=O)N[C@@H](Cc1ccc(-c2ccnc(C)c2C)cc1)C(=O)O)OC[C@H](c1ccc(OCc2ccc(Cl)c(Cl)c2)cc1)O3", "note": "[Crystal form A, (S)-2-(3S,8S)-3-(4-(3,4-dichlorobenzyloxy)phenyl-7-((S)-1-phenylpropyl)-2,3,6,7,8,9-hexahydro-[1,4]-dioxino[2,3-g]isoquinolin-8-ylformylamino)-3-(4-(2,3-dimethylpyridin-4-yl)phenyl)propionic acid]", "values": [{"measurement": "HPLC purity (area %)", "setting": "[1]; 25° C./75 ± 5% RH, 7 d", "value": 98.90, "unit": "area %"}, {"measurement": "HPLC purity (area %)", "setting": "[1]; High temperature 60° C., 5 d, listed as Crystal form A (2#)", "value": 98.12, "unit": "area %"}, {"measurement": "HPLC purity (area %)", "setting": "[1]; Initial, 0 d, listed as Crystal form A (1#)", "value": 98.88, "unit": "area %"}, {"measurement": "HPLC purity (area %)", "setting": "[1]; Initial, 0 d, listed as Crystal form A (2#)", "value": 98.13, "unit": "area %"}, {"measurement": "HPLC purity (area %)", "setting": "[1]; [5]", "value": 98.69, "unit": "area %"}, {"measurement": "HPLC purity (area %)", "setting": "[1]; [6]", "value": 98.67, "unit": "area %"}, {"measurement": "chemical stability (overall finding)", "setting": "[1]; overall result of Table 3", "value": "good chemical stability"}, {"measurement": "weight increase from absorption of water", "setting": "[2]; listed as OAD2 crystalline Form A", "value": "did not gain weight"}, {"measurement": "weight increase from absorption of water", "setting": "[2]; listed as crystal form A of OAD2", "value": "no measurable amount weight increase"}, {"measurement": "moisture absorption (in words)", "setting": "[2]; listed as crystal form A of the free base", "value": "not easy to absorb moisture"}, {"measurement": "Change of crystal form", "setting": "[3]; 25° C./75 ± 5% RH, 7 d", "value": "no"}, {"measurement": "Change of crystal form", "setting": "[3]; High temperature 60° C., 5 d", "value": "no"}, {"measurement": "Change of crystal form", "setting": "[3]; Initial, 0 d", "value": "no"}, {"measurement": "Change of crystal form", "setting": "[3]; [5]", "value": "no"}, {"measurement": "Change of crystal form", "setting": "[3]; [6]", "value": "no"}, {"measurement": "Change of crystal form", "setting": "[3]; Successively suspended in SGF/FeSSIF/FaSSIF/water, 1 d", "value": "no"}, {"measurement": "change of crystal form (overall finding)", "setting": "[3]; under various conditions", "value": "did not change the crystal form"}]}
{"smiles": "CC[C@@H](c1ccccc1)N1Cc2cc3c(cc2C[C@H]1C(=O)N[C@@H](Cc1ccc(-c2ccnc(C)c2C)cc1)C(=O)O)OC[C@H](c1ccc(OCc2ccc(Cl)c(Cl)c2)cc1)O3", "note": "[OAD2 dihydrochloride, (S)-2-(3S,8S)-3-(4-(3,4-dichlorobenzyloxy)phenyl-7-((S)-1-phenylpropyl)-2,3,6,7,8,9-hexahydro-[1,4]-dioxino[2,3-g]isoquinolin-8-ylformylamino)-3-(4-(2,3-dimethylpyridin-4-yl)phenyl)propionic acid dihydrochloride, reference compound]", "values": [{"measurement": "HPLC purity (area %)", "setting": "[1]; 25°C/75+5% RH, 5 d", "value": 99.07, "unit": "area %"}, {"measurement": "weight increase from absorption of water", "setting": "[2]; dihydrochloride", "value": 8.3, "unit": "%"}, {"measurement": "weight increase from absorption of water", "setting": "[2]; listed as OAD2 dihydrochloride salt, dihydrochloride", "value": 8.3, "unit": "%"}, {"measurement": "moisture absorption (in words)", "setting": "[2]; listed as dihydrochloride salt of OAD2, dihydrochloride", "value": "absorbs moisture"}, {"measurement": "HPLC purity (area %)", "setting": "[4]; High temperature 60° C., 5 d", "value": 98.70, "unit": "area %"}, {"measurement": "HPLC purity (area %)", "setting": "[4]; Initial, 0 d", "value": 99.03, "unit": "area %"}]}
